Measured values from patent US10011573B2, “Human androgen receptor DNA-binding domain (DBD) compounds as therapeutics and methods for their use” (The University of British Columbia, priority 2014, dated 2018).

How the values were obtained:
[1] = biological target: T1, AR(1-653) truncation mutant (Homo sapiens, UniProt P10275); settings: 25 μM, PC3 cells, ARR3tk-luciferase; cited from earlier work
T1 construct: host or cells: PC3 co-transfected with ARR3tk-luciferase

PSA [2] = assay: PSA measurements, LNCaP cells, 1 nM R1881, 2 days; assay type: cell-based, human
Procedure: Following the incubation period, 150 μl of the media was taken from each well, and PSA levels were quantified using a Cobas e411 analyzer (Roche Applied Science™) according to the manufacturer's instructions. The same instrument was used to analyze serum PSA from mice during the in vivo analysis.

PSA [3] = assay: Prostate-specific antigen (PSA) assay, secreted PSA from the eGFP assay plates; assay type: cell-based, human; settings: Homo sapiens; LNCaP eGFP cells, R1881, secreted PSA
Procedure: 3. Prostate-specific antigen (PSA) assay: The evaluation of PSA levels secreted into the media was performed in parallel to the eGFP assay using the same plates. After cells were incubated for 3 days, 150 μl of the media was taken from each well, and added to 150 μl of PBS.

FKBP5 [4] = assay: Western blot FKBP5 protein in R1-D567 cells; assay type: cell-based, human
Procedure: (§1) Cell lysates (40 μl) from luciferase assays (96-well plate) were separated on a 10% SDS-polyacrylamide mini gel. Protein was transferred to methanol-charged PVDF membranes and probed with anti-AR441 (mouse, Sigma™) monoclonal primary antibody. Blots were also probed with polyclonal anti-actin (rabbit, Sigma™) to show equal loading and polyclonal anti-PARP/anti-cleaved PARP (rabbit, Sigma™) to test for induction of apoptosis. Lysates from CWR-R1 cells were additionally probed with polyclonal anti-FKBP5 (rabbit, Sigma™) following 2 days of incubation with compounds.

FKBP5 [5] = assay: Western blot FKBP5 protein in R1-AD1 cells; assay type: cell-based, human
Procedure: as §1

ER-α = biological target: T2, ER-α (Homo sapiens, UniProt P03372); assay: Estrogen-response element-luciferase assay in MCF-7 cells; assay type: cell-based
T2 construct: endogenous in cells; host or cells: MCF-7 with ERE-luciferase reporter
T2 sequence (P03372 whole entry): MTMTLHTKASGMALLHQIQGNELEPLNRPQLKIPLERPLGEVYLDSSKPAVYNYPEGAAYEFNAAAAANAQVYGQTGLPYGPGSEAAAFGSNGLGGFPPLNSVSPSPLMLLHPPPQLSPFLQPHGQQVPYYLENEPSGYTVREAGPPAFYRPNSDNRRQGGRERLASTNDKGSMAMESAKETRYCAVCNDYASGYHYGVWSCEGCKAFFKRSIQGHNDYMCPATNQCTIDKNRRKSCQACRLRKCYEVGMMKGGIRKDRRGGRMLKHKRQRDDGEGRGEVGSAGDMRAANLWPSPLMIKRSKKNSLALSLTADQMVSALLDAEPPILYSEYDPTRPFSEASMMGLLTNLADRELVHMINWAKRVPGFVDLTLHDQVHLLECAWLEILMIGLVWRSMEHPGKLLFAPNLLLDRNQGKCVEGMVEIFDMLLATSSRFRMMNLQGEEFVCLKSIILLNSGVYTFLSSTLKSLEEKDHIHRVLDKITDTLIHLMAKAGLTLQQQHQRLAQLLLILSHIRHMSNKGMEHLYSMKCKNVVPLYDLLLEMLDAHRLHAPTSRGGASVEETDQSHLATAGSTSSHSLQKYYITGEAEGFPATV
Procedure: 9. Transient Transfection: The PC3/MCF7 cells were seeded into a 96-well plate (2,000 cells/well). After 24 hrs, the wild-type AR (50 ng/well)/AR mutants and AR3TK-luciferase plasmids (1:3) were co-transfected into PC3 cells or ERE-luciferase (50 ng/well) was transfected into MCF7 cells using transfection reagent TT20. 24 hrs after the transfection, the cells were treated with the compounds at various concentrations. And 24 hrs later, the cells were lysed and the reading was taken using a luminometer.

T1 sequence (P10275 1-653, change not shown): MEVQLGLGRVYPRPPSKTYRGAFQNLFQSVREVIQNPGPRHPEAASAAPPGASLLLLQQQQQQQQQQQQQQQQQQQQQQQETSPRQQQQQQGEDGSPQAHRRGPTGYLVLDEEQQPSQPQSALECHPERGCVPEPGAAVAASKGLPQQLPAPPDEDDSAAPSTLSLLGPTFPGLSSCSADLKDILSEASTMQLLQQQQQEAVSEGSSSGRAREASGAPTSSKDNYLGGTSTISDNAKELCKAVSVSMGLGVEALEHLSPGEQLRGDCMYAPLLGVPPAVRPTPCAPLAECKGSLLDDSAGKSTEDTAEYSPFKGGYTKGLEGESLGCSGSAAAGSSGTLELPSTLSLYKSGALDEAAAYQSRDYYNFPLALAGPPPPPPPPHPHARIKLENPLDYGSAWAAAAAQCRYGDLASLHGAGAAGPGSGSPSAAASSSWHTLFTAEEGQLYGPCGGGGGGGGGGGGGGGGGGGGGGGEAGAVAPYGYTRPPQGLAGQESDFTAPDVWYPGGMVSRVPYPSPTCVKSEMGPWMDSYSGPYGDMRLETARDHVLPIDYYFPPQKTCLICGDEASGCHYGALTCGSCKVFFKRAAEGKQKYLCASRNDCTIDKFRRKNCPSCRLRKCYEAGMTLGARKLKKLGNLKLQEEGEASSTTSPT

| Compound | inhibition of AR(1-653) truncation mutant [1] | IC50 secreted PSA (PSA [2]) | IC50 (PSA [3]) | FKBP5 protein expression, R1-D567 cells (FKBP5 [4]) | FKBP5 protein expression, R1-AD1 cells (FKBP5 [5]) | effect on ER transcriptional activity (ER-α) |
| --- | --- | --- | --- | --- | --- | --- |
| CC(C)(c1ccc(OCC(O)CO)cc1)c1ccc(OCC(O)CCl)cc1 (stereo not drawn) [EPI-001] | ~80% |  |  |  |  |  |
| CNC(=O)c1ccc(N2C(=S)N(c3ccc(C#N)c(C(F)(F)F)c3)C(=O)C2(C)C)cc1F [enzalutamide, reference compound] |  | sub-micromolar | 120 nM | only affected R1-AD1 cells | only affected R1-AD1 cells | considerable cross-reactivity |
